Source: article PMC5529658, “Antiproliferative and Antibacterial Activities of Cirsium scabrum from Tunisia” (Evidence-based Complementary and Alternative Medicine : eCAM, 2017)

Experiments:
[1] = system: WI38 (human normal fibroblast-like lung cell line); experiment: MTT cytotoxicity assay on WI38; type: cell-based; settings: WI-38, 72 h, mean ± SEM, six determinations
Description: (§1) Cell Culture. The cytotoxicity was evaluated on two cell lines: J774 (macrophage-like cell line, derived from BALB/c murine reticulum cell sarcoma) and WI38 (human normal fibroblast-like lung cell line), using the tetrazolium salt MTT [3-(4,5-dimethylthiazol-2-yl)-2,5-diphenyltetrazolium bromide (Sigma)] colorimetric method, as described by Bero et al.. J774 cells were cultivated in a humidified atmosphere with 5% CO2 at 37°C in RPMI 1640 medium (Life Technologies, Paisley, UK) containing 2 mM L-glutamine supplemented with 10% heat-inactivated fetal bovine serum (Life Technologies) and penicillin-streptomycin (100 UI/ml). WI38 cells were cultivated in a humidified atmosphere with 5% CO2 at 37°C in DMEM medium (Life Technologies) containing 4 mM L-glutamine, 1 mM sodium pyruvate supplemented with 10% heat-inactivated fetal bovine serum (Life Technologies), and penicillin-streptomycin (100 UI/ml).
Cytotoxicity Assay. Briefly, WI38 or J774 cells were seeded in 96-well plates (5000 cells/well/180 µl medium or 2.8 × 10^4 cells/ml). After 24 h, cells were treated with 20 μl of crude extract and partitions solutions in a fixed concentration of 50 µg/ml to calculate cell viability percentage. […] Absorbance was recorded at 570 nm and 620 nm. […]
(§2) Cell viability% = [AT/ANT] × 100, with A: absorbance, NT: control cells, and T: treated cells.

[2] = system: J774 (macrophage-like cell line, derived from BALB/c murine reticulum cell sarcoma); experiment: MTT cytotoxicity assay on J774; type: cell-based; settings: for IC50: Mus musculus, J774, MTT, 72 h, mean ± SEM, six determinations; for SI (IC50 WI38/IC50 J774): selectivity index WI38 vs J774
Description: as §1
Cytotoxicity Assay. Briefly, WI38 or J774 cells were seeded in 96-well plates (5000 cells/well/180 µl medium or 2.8 × 10^4 cells/ml). After 24 h, cells were treated with 20 μl of crude extract and partitions solutions in a fixed concentration of 50 µg/ml to calculate cell viability percentage. […] After 72 h, the medium was replaced by 100 μl of a 10% MTT solution (3 mg/ml in PBS) in medium. After 45 min, the medium was removed again and 100 μl of DMSO was added to solubilize formed formazan crystals. Absorbance was recorded at 570 nm and 620 nm. Each sample was tested in eight serial […] dilutions in 96-well microtiter plates, at least three wells per concentration in duplicate. Camptothecin (Sigma) was used as positive control (concentration range: 25–0.00032 µg/ml).
as §2

[3] = system: several cultured human cancer cell lines; settings: cited from earlier work
[4] = system: Corynebacterium striatum T40A3; experiment: Antimicrobial assay (MIC, agar dilution); type: cell-based
Description: (§3) The antimicrobial activity of crude extract and partitions was evaluated against 36 pathogenic microorganisms (22 Gram-positive bacteria, 13 Gram-negative bacteria, and 1 yeast) according to Mahamodo et al.. The 36 microorganisms were grown overnight at 37°C on sloping Mueller-Hinton (MH) agar medium. Briefly, the bacteria were diluted with Ringer's Cysteine (RC) solution to obtain 10^6 bacteria/ml. […] Inocula of 10^4 colony forming units (CFU) were spotted ultimately with a multipoint inoculator (Steers Replicator).

[5] = system: Corynebacterium striatum T46C1; experiment: Antimicrobial assay (MIC, agar dilution); type: cell-based
Description: as §3

[6] = system: Dermabacter hominis T47A7; experiment: Antimicrobial assay (MIC, agar dilution); type: cell-based
Description: as §3

[7] = system: Dermabacter hominis T49B5; experiment: Antimicrobial assay (MIC, agar dilution); type: cell-based
Description: as §3

[8] = system: Enterococcus faecalis T37B1; experiment: Antimicrobial assay (MIC, agar dilution); type: cell-based
Description: as §3

[9] = system: Enterococcus faecalis T47A16; experiment: Antimicrobial assay (MIC, agar dilution); type: cell-based
Description: as §3

[10] = system: Escherichia coli T20A2; experiment: Antimicrobial assay (MIC, agar dilution); type: cell-based
Description: as §3

[11] = system: Pseudomonas aeruginosa ATCC9027; experiment: Antimicrobial assay (MIC, agar dilution); type: cell-based
Description: as §3

[12] = system: Pseudomonas aeruginosa T41; experiment: Antimicrobial assay (MIC, agar dilution); type: cell-based
Description: as §3

[13] = system: Staphylococcus aureus 8142; experiment: Antimicrobial assay (MIC, agar dilution); type: cell-based
Description: as §3

[14] = system: Staphylococcus aureus 8143; experiment: Antimicrobial assay (MIC, agar dilution); type: cell-based
Description: as §3

[15] = system: Staphylococcus aureus 8148; experiment: Antimicrobial assay (MIC, agar dilution); type: cell-based
Description: as §3

[16] = system: Staphylococcus aureus T11; experiment: Antimicrobial assay (MIC, agar dilution); type: cell-based
Description: as §3

[17] = system: Staphylococcus aureus T21; experiment: Antimicrobial assay (MIC, agar dilution); type: cell-based
Description: as §3

[18] = system: Staphylococcus aureus T2510; experiment: Antimicrobial assay (MIC, agar dilution); type: cell-based
Description: as §3

[19] = system: Staphylococcus aureus T26A4; experiment: Antimicrobial assay (MIC, agar dilution); type: cell-based
Description: as §3

[20] = system: Staphylococcus aureus T281; experiment: Antimicrobial assay (MIC, agar dilution); type: cell-based
Description: as §3

[21] = system: Staphylococcus aureus T306; experiment: Antimicrobial assay (MIC, agar dilution); type: cell-based
Description: as §3

[22] = system: Staphylococcus aureus T61; experiment: Antimicrobial assay (MIC, agar dilution); type: cell-based
Description: as §3

[23] = system: Staphylococcus capitis T21A3; experiment: Antimicrobial assay (MIC, agar dilution); type: cell-based
Description: as §3

[24] = system: Staphylococcus capitis T29A2; experiment: Antimicrobial assay (MIC, agar dilution); type: cell-based
Description: as §3

[25] = system: Staphylococcus epidermidis T151; experiment: Antimicrobial assay (MIC, agar dilution); type: cell-based
Description: as §3

[26] = system: Staphylococcus epidermidis T19A1; experiment: Antimicrobial assay (MIC, agar dilution); type: cell-based
Description: as §3

[27] = system: Staphylococcus lugdunensis T36A1; experiment: Antimicrobial assay (MIC, agar dilution); type: cell-based
Description: as §3

[28] = system: Staphylococcus lugdunensis T47B2; experiment: Antimicrobial assay (MIC, agar dilution); type: cell-based
Description: as §3

[29] = system: Staphylococcus pettenkoferi T282; experiment: Antimicrobial assay (MIC, agar dilution); type: cell-based
Description: as §3

[30] = system: Staphylococcus pettenkoferi T33; experiment: Antimicrobial assay (MIC, agar dilution); type: cell-based
Description: as §3

[31] = system: Staphylococcus saprophyticus 8237; experiment: Antimicrobial assay (MIC, agar dilution); type: cell-based
Description: as §3

[32] = system: Streptococcus agalactiae T53A4; experiment: Antimicrobial assay (MIC, agar dilution); type: cell-based; settings: vancomycin
Description: as §3

## C=C(C)[C@@H]1CC[C@]2(C)CC[C@]3(C)[C@H](CC[C@@H]4[C@@]5(C)CC[C@H](O)C(C)(C)[C@@H]5CC[C@]43C)[C@@H]12 [Compound 1, lupeol]
[1]
  IC50: 19.2 ± 0.55 µg/mL
[2]
  IC50: 12.6 ± 0.23 µg/mL
  SI (IC50 WI38/IC50 J774): 1.5^∗∗∗
[2]; listed as Lupeol
  SI (IC50 WI38/IC50 J774): 1.5

## C[C@H](C/C=C/C(C)(C)OO)[C@H]1CC[C@@]2(C)[C@@H]3CC[C@H]4C(C)(C)[C@@H](O)CC[C@@]45C[C@@]35CC[C@]12C [Compound 3a, 25-hydroperoxycycloart-23-en-3β-ol]
[3]
  cytotoxic activity: significant cytotoxic activity

## CC[C@@]1(O)C(=O)OCc2c1cc1n(c2=O)Cc2cc3ccccc3nc2-1 [Camptothecin]
[1]
  IC50: 0.175 ± 0.029 µg/mL
[2]
  IC50: 0.011 ± 0.002 µg/mL
  SI (IC50 WI38/IC50 J774): 15^∗∗∗

## CNC(C)C1CCC(N)C(OC2C(N)CC(N)C(OC3OCC(C)(O)C(NC)C3O)C2O)O1 (stereo not drawn) [Gent, gentamicin]
[4]; gentamicin
  Reference antibiotics MIC values: R (R: >8)
[5]; gentamicin
  Reference antibiotics MIC values: S (Gent (gentamicin), S: ≤4)
[6]; gentamicin
  Reference antibiotics MIC values: S (Gent (gentamicin), S: ≤4)
[7]; gentamicin
  Reference antibiotics MIC values: S (Gent (gentamicin), S: ≤4)
[8]; gentamicin
  Reference antibiotics MIC values: S (Gent (gentamicin), S: ≤4)
[9]; gentamicin
  Reference antibiotics MIC values: S (Gent (gentamicin), S: ≤4)
[10]; gentamicin
  Reference antibiotics MIC values: R (R: >8)
[11]; gentamicin
  Reference antibiotics MIC values: S (Gent (gentamicin), S: ≤4)
[12]; gentamicin
  Reference antibiotics MIC values: S (Gent (gentamicin), S: ≤4)
[13]; gentamicin
  Reference antibiotics MIC values: S (Gent (gentamicin), S: ≤4)
[14]; gentamicin
  Reference antibiotics MIC values: S (Gent (gentamicin), S: ≤4)
[15]; gentamicin
  Reference antibiotics MIC values: S (Gent (gentamicin), S: ≤4)
[16]; gentamicin
  Reference antibiotics MIC values: S (Gent (gentamicin), S: ≤4)
[17]; gentamicin
  Reference antibiotics MIC values: S (Gent (gentamicin), S: ≤4)
[18]; gentamicin
  Reference antibiotics MIC values: S (Gent (gentamicin), S: ≤4)
[19]; gentamicin
  Reference antibiotics MIC values: S (Gent (gentamicin), S: ≤4)
[20]; gentamicin
  Reference antibiotics MIC values: S (Gent (gentamicin), S: ≤4)
[21]; gentamicin
  Reference antibiotics MIC values: S (Gent (gentamicin), S: ≤4)
[22]; gentamicin
  Reference antibiotics MIC values: S (Gent (gentamicin), S: ≤4)
[23]; gentamicin
  Reference antibiotics MIC values: S (Gent (gentamicin), S: ≤4)
[24]; gentamicin
  Reference antibiotics MIC values: S (Gent (gentamicin), S: ≤4)
[25]; gentamicin
  Reference antibiotics MIC values: R (R: >8)
[26]; gentamicin
  Reference antibiotics MIC values: S (Gent (gentamicin), S: ≤4)
[27]; gentamicin
  Reference antibiotics MIC values: S (Gent (gentamicin), S: ≤4)
[28]; gentamicin
  Reference antibiotics MIC values: S (Gent (gentamicin), S: ≤4)
[29]; gentamicin
  Reference antibiotics MIC values: S (Gent (gentamicin), S: ≤4)
[30]; gentamicin
  Reference antibiotics MIC values: S (Gent (gentamicin), S: ≤4)
[31]; gentamicin
  Reference antibiotics MIC values: S (Gent (gentamicin), S: ≤4)

## CN[C@H](CC(C)C)C(=O)N[C@H]1C(=O)N[C@@H](CC(N)=O)C(=O)N[C@H]2C(=O)N[C@H]3C(=O)N[C@H](C(=O)N[C@H](C(=O)O)c4cc(O)cc(O)c4-c4cc3ccc4O)[C@H](O)c3ccc(c(Cl)c3)Oc3cc2cc(c3O[C@@H]2O[C@H](CO)[C@@H](O)[C@H](O)[C@H]2O[C@H]2C[C@](C)(N)[C@H](O)[C@H](C)O2)Oc2ccc(cc2Cl)[C@H]1O [Vanc, vancomycin]
[4]; vancomycin
  Reference antibiotics MIC values: S (Vanc (vancomycin), S: ≤4)
[5]; vancomycin
  Reference antibiotics MIC values: S (Vanc (vancomycin), S: ≤4)
[6]; vancomycin
  Reference antibiotics MIC values: S (Vanc (vancomycin), S: ≤4)
[7]; vancomycin
  Reference antibiotics MIC values: S (Vanc (vancomycin), S: ≤4)
[8]; vancomycin
  Reference antibiotics MIC values: S (Vanc (vancomycin), S: ≤4)
[9]; vancomycin
  Reference antibiotics MIC values: S (Vanc (vancomycin), S: ≤4)
[10]; vancomycin
  Reference antibiotics MIC values: R (R: >16)
[11]; vancomycin
  Reference antibiotics MIC values: R (R: >16)
[12]; vancomycin
  Reference antibiotics MIC values: R (R: >16)
[13]; vancomycin
  Reference antibiotics MIC values: S (Vanc (vancomycin), S: ≤4)
[14]; vancomycin
  Reference antibiotics MIC values: S (Vanc (vancomycin), S: ≤4)
[15]; vancomycin
  Reference antibiotics MIC values: S (Vanc (vancomycin), S: ≤4)
[16]; vancomycin
  Reference antibiotics MIC values: S (Vanc (vancomycin), S: ≤4)
[17]; vancomycin
  Reference antibiotics MIC values: S (Vanc (vancomycin), S: ≤4)
[18]; vancomycin
  Reference antibiotics MIC values: S (Vanc (vancomycin), S: ≤4)
[19]; vancomycin
  Reference antibiotics MIC values: S (Vanc (vancomycin), S: ≤4)
[20]; vancomycin
  Reference antibiotics MIC values: S (Vanc (vancomycin), S: ≤4)
[21]; vancomycin
  Reference antibiotics MIC values: S (Vanc (vancomycin), S: ≤4)
[22]; vancomycin
  Reference antibiotics MIC values: S (Vanc (vancomycin), S: ≤4)
[23]; vancomycin
  Reference antibiotics MIC values: S (Vanc (vancomycin), S: ≤4)
[24]; vancomycin
  Reference antibiotics MIC values: S (Vanc (vancomycin), S: ≤4)
[25]; vancomycin
  Reference antibiotics MIC values: S (Vanc (vancomycin), S: ≤4)
[26]; vancomycin
  Reference antibiotics MIC values: R (R: >16)
[27]; vancomycin
  Reference antibiotics MIC values: S (Vanc (vancomycin), S: ≤4)
[28]; vancomycin
  Reference antibiotics MIC values: S (Vanc (vancomycin), S: ≤4)
[29]; vancomycin
  Reference antibiotics MIC values: S (Vanc (vancomycin), S: ≤4)
[30]; vancomycin
  Reference antibiotics MIC values: S (Vanc (vancomycin), S: ≤4)
[31]; vancomycin
  Reference antibiotics MIC values: S (Vanc (vancomycin), S: ≤4)
[32]
  Reference antibiotics MIC values: R (R: >16)

## C=C(C)C(CC[C@@H](C)[C@H]1CC[C@@]2(C)[C@@H]3CC[C@H]4C(C)(C)[C@@H](O)CC[C@@]45C[C@@]35CC[C@]12C)OO (stereo partly drawn) [Compound 3b, 24-hydroperoxycycloart-25-en-3β-ol]
[3]
  cytotoxic activity: significant cytotoxic activity
